Measured values taken from patent US20240132449A1, “HETEROCYCLIC COMPOUNDS AND METHODS OF USE THEREOF” (1cBio, Inc., priority 2022, published 2024).
Where a name gives a salt, the structure may show the parent alone.

How the values were obtained:
MDA-MB-436 cells = experiment: Colony formation assay; format: cell-based; details: Homo sapiens, seeding density 2000-4000 cells/well and treatment time 12-14 days
Procedure: A colony formation assay was performed to assess the activity of test compounds. MDA-MB-436 cells were harvested, counted and seeded in culture medium (DMEM+10% FBS+1% PS) at a specified density in a volume of 600-1000 μL per well in a 24-well cell culture plate. The plates were incubated overnight at 37° C. in a 5% CO2 incubator. Test compounds were dissolved in DMSO and added to the plate in duplicate wells for each concentration tested. On day 7, the supernatant was removed and 1000 μL of freshly diluted compounds were added to the plates. The plates were returned to incubator to continue incubation. After treatment with the compounds for a specified number of days, e.g. 10-14 days, detection was performed. For detection, the plate was incubated for 20 min after removing the medium and adding fixing solution. Subsequently, the fixing solution was removed and the plates washed with PBS. The plates were then stained with staining solution (0.1% (w/v) crystal violet). After removal of the staining solution, the plates were washed with PBS and scanned on a LICOR imager using the 700 nm channel.

PARP1 = PARP1 (Homo sapiens, UniProt P09874); experiment: PARP1 fluorescence polarization binding assay; details: binding IC50, GST-tagged PARP1 20 nM, PARPi-FL 3 nM
Sequence of PARP1 (P09874 whole entry): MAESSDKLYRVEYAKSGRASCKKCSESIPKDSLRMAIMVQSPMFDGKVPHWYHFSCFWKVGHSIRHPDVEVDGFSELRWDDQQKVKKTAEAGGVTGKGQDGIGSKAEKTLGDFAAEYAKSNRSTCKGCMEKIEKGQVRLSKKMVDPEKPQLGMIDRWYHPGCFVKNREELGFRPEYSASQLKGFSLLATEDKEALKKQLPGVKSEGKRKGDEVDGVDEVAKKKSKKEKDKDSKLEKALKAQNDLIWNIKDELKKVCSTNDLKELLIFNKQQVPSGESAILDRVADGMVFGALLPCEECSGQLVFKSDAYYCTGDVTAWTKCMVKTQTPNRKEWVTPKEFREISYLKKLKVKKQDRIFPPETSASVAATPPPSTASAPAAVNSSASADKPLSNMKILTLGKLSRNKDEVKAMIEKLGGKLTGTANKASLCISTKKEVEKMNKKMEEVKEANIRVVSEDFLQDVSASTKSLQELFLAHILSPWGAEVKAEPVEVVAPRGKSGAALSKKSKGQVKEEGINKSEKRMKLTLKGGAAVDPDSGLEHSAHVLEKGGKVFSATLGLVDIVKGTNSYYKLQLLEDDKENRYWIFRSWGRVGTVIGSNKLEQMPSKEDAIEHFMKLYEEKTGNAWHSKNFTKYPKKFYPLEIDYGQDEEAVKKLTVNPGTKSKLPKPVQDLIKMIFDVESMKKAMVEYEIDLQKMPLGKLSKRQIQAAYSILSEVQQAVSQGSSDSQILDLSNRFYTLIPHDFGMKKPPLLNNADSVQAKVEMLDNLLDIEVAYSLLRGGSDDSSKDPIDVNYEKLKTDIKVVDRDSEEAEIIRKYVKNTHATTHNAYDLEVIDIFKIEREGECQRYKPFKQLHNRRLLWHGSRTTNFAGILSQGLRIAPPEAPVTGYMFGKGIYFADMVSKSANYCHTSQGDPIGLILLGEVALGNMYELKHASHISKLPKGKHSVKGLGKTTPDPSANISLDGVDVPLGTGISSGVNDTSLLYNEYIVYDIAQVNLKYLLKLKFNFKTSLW
In short: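 Competitive FP binding: 20 nM GST-tagged PARP1 preincubated with compound 30 min at RT, then 3 nM PARPi-FL probe for 4 h at RT; buffer 50 mM Tris pH 8.0, 10 mM MgCl2, 150 mM NaCl. 10-point 3-fold dilutions; % inhibition from mP versus controls, IC50 by four-parameter fit, reported in ranges.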

recombinant human PARP2 = recombinant human PARP2 (Homo sapiens, UniProt Q9UGN5); experiment: PARP2 fluorescence polarization binding assay; details: for IC50: binding IC50, GST-tagged PARP2 20 nM, PARPi-FL 3 nM; for inhibition at 10 µM: read-out: PARP2 % inh at 10 μM
Sequence of recombinant human PARP2 (Q9UGN5 whole entry): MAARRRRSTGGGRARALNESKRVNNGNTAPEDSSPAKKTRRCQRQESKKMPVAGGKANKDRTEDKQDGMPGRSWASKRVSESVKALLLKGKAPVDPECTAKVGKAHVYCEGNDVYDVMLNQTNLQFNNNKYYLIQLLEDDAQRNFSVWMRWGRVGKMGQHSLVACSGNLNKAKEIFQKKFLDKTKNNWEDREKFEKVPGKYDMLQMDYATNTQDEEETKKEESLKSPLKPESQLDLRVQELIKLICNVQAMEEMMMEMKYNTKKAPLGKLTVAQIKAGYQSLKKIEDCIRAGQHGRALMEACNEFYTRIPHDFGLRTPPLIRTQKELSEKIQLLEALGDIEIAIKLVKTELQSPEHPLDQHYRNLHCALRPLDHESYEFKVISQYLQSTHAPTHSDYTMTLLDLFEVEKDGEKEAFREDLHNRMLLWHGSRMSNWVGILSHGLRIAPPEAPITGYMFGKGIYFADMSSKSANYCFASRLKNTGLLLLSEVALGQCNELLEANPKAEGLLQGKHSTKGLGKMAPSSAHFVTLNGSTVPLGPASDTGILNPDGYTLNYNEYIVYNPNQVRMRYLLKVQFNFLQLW
In short: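 GST-tagged PARP2, added at 40 nM in 50 mM Tris pH 8.0, 0.001% Triton X-100, 10 mM MgCl2, 150 mM NaCl, was preincubated 30 min at RT with compound (10-point 3-fold series or single concentration). PARPi-FL probe was then added at 6 nM for 4 h. IC50 was fitted from fluorescence polarization (ex 480/em 535 nm) with floating top and bottom.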

[1] = system: DLD-1 BRCA2(−/−) colorectal adenocarcinoma cells; experiment: Cell viability assay (Cell Titer-Glo), DLD-1 BRCA2(−/−); format: cell-based; details: Homo sapiens, DLD-1, 168 h; 7 days incubation, 200 cells/well
In short: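 Isogenic DLD-1 wild-type (50 cells/well) and BRCA2(−/−) (200 cells/well) lines treated after overnight attachment, 7 days at 37 °C, 5% CO2. Ten-point dilutions (e.g. 1.5 nM–30 μM) or single dose; CellTiter-Glo luminescence; IC50 from four-parameter fit, plus % inhibition at 10 μM.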

Structure (SMILES) | inhibition at 0.3 µM (MDA-MB-436 cells) | inhibition at 3 µM (MDA-MB-436 cells) | inhibition at 30 µM (MDA-MB-436 cells) | IC50 (PARP1) | IC50 (recombinant human PARP2) | inhibition at 10 µM (recombinant human PARP2) | IC50 [1]
CCn1c(=O)[nH]c2cc(CN3CCN(c4ccc(C(=O)NC)nc4)CC3)ccc2c1=O [Compound 3, 5-(4-((3-ethyl-2,4-dioxo-1,2,3,4-tetrahydroquinazolin-7-yl)methyl)piperazin-1-yl)-N-methylpicolinamide formate] | ≥ 66.7% | ≥ 66.7% | ≥ 66.7% | < 100 nM | > 3000 nM | 33 to 67% | 300 to 3000 nM
CCn1c(=O)[nH]c2cc(CN3CCN(c4ccc(C(=O)NC)nc4C)CC3)ccc2c1=O [Compound 16, 5-{4-[(3-ethyl-2,4-dioxo-1H-quinazolin-7-yl)methyl]piperazin-1-yl}-N,6-dimethylpyridine-2-carboxamide] | ≥ 66.7% | ≥ 66.7% | ≥ 66.7% | < 100 nM | > 3000 nM | 33 to 67% | < 300 nM
CCn1c(=O)[nH]c2cc(CN3CCN(c4ccc(C(=O)NC)nc4C)CC3)ccc2c1=S [Compound 51, 5-(4-((3-ethyl-2-oxo-4-thioxo-1,2,3,4-tetrahydroquinazolin-7-yl)methyl)piperazin-1-yl)-N,6-dimethylpicolinamide formate] | ≥ 66.7% | ≥ 66.7% | ≥ 66.7% | < 100 nM | > 3000 nM | 33 to 67% | < 300 nM
CCn1c(=O)[nH]c2cc(CN3CCN(c4ccc(C(=O)NC)nc4C)CC3)sc2c1=O [Compound 188, 5-(4-((3-ethyl-2,4-dioxo-1,2,3,4-tetrahydrothieno[3,2-d]pyrimidin-6-yl)methyl)piperazin-1-yl)-N,6-dimethylpicolinamide] | ≥ 66.7% | ≥ 66.7% | ≥ 66.7% | < 100 nM | > 3000 nM | 33 to 67% | < 300 nM
CCN1Cc2ccc(CN3CCN(c4ccc(C(=O)NC)nc4)CC3)cc2NC1=O [Compound 196, 5-(4-((3-ethyl-2-oxo-1,2,3,4-tetrahydroquinazolin-7-yl)methyl)piperazin-1-yl)-N-methylpicolinamide formate] | < 33.3% | 33.3 to 66.7% | 33.3 to 66.7% | < 100 nM | > 3000 nM | 33 to 67% | 300 to 3000 nM
